Active and inactive are the calls of the source. How the calls were made is not given here.
Each molecule was assayed against Ubiquitin carboxyl-terminal hydrolase 10 (Homo sapiens) (UniProt Q14694) (assay: ubiquitin-specific protease 10 DUB inhibitors, concentration-effect, biochemical, verification of primary screen actives (AID 1645863;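 further: potency values describe inhibition of USP10 cleavage of a fluorogenic ubiquitin substrate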)). Conditions: USP10 deubiquitinase enzymatic assay.
Chain of Ubiquitin carboxyl-terminal hydrolase 10 (Homo sapiens) (Q14694 whole entry, looked up): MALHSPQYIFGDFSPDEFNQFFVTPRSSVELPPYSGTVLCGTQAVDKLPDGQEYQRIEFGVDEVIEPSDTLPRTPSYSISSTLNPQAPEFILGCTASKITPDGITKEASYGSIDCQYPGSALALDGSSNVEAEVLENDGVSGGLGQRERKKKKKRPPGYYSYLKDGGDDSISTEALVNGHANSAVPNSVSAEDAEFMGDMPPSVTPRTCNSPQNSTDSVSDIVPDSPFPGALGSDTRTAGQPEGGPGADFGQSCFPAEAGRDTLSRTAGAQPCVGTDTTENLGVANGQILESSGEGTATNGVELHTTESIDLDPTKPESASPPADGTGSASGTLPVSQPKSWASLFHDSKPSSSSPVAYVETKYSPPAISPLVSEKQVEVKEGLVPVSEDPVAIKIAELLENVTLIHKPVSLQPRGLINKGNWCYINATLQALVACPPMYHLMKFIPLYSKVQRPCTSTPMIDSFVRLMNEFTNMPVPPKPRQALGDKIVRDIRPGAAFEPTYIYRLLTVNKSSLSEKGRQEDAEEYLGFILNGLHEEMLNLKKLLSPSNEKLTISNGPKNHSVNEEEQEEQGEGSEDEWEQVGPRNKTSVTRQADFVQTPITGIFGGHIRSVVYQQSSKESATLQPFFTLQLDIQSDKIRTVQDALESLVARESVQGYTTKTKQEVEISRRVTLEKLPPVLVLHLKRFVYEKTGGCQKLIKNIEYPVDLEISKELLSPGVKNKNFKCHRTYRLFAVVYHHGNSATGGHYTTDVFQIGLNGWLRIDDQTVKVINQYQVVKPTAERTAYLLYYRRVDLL

Row | SMILES | IC50
1 | Cc1noc(-c2ccnc(-n3cnc(C(=O)NCC4CC4)c3)c2)n1 | > 40 µM (inactive)
2 | Nc1c(C(=O)NCc2ccc3c(c2)OCO3)nnn1Cc1ccc(Br)cc1F | 18.4 µM
3 | COc1ccc(-c2nc(Cn3nnc(C(=O)Nc4ccc(C)c(C)c4)c3N)c(C)o2)cc1 | 29.1 µM
4 | Cc1cccc(C)c1NC(=O)CN1C(=O)CC(c2ccccc2)=Nc2ccccc21 | 26.4 µM
5 | COc1ccc(NC(=O)Cn2c(=O)n(Cc3ccco3)c(=O)c3ccc(C(=O)NC4CCCC4)cc32)cc1 | > 40 µM (inactive)
6 | CCOc1cc2c(cc1OCC)C(c1cc3c(cc1Br)OCO3)NCC2 (centres undefined) | > 40 µM (inactive)
7 | COc1cc2c(cc1OC)-c1cc(Nc3ccc(Br)cc3)nc(=O)n1CC2 | 13.7 µM
8 | Cc1cccc2nc(CSc3nc4ccc([N+](=O)[O-])cc4[nH]3)cn12 | 19.8 µM
9 | Cc1cccc(N2CCN(C(=O)c3nc4cccnc4n(C)c3=O)CC2)c1C | > 40 µM (inactive)
10 | CCOc1ccc2cc3c(nc2c1)OC(=O)N(Cc1ccc(OC)cc1)C3 | 5.74 µM
11 | O=C(Nc1ccc(F)cc1F)c1cc(-c2ccccn2)n[nH]1 | > 40 µM (inactive)
12 | CC(=O)Nc1ccc(S(=O)(=O)NCc2ccc(C(=O)NCCc3ccc(Cl)cc3)cc2)cc1 | > 40 µM (inactive)
13 | O=C(Cn1cnc(-c2noc(-c3cccc(F)c3)n2)c1)Nc1ccccc1 | 39.8 µM
14 | O=C(CSc1nc2ccccc2[nH]1)Nc1cccc2c1OCCO2 | > 40 µM (inactive)
15 | COc1cccc2c1NC(=O)C21CCN(C(=O)Nc2cccc3ccccc23)CC1 | > 40 µM (inactive)
16 | Cn1c(=O)c(-c2ccc(C(=O)NCc3cccc(Cl)c3)cc2)nc2cccnc21 | > 40 µM (inactive)
17 | O=C(NCc1ccc(Cl)cc1)c1cc2c(s1)-c1ccccc1OC2 | > 40 µM (inactive)
18 | NC(=O)C1(N2CCCCC2)CCN(c2ncc3c(=O)n(-c4ccccc4)c(=O)[nH]c3n2)CC1 | > 40 µM (inactive)
19 | CCc1cccc(CC)c1NC(=O)COC(=O)c1cc2cccc(OC)c2oc1=O | > 40 µM (inactive)
20 | COc1cc2c(c(OCC(=O)Nc3ccc4c(c3)OCCO4)c1)C(=O)O[C@@H](C)CCCC(=O)CCCCC2 | 31.5 µM

Row | SMILES | IC50
21 | C=C/C(C)=C/[C@@]1(C)SC(=O)C(C)=C1O | 10.4 µM
22 | COC(=O)c1ccc(NC(=O)c2ccc(COc3cc(Cl)ccc3Cl)cc2)cc1 | > 40 µM (inactive)
23 | O=C(/C=C/c1ccc(F)cc1)N1CCc2ccccc2C1 | > 40 µM (inactive)
24 | CN1CCC(N2CCN(C(=O)C3CCCN(c4cnc5nccnc5c4)C3)CC2)CC1 (centres undefined) | > 40 µM (inactive)
25 | CSc1ccc(CNC(=O)Cn2c(=O)[nH]c3c(-c4ccccc4)c[nH]c3c2=O)cc1 | > 40 µM (inactive)
26 | Cn1cc2cccc(NC(=O)c3ccc(F)cc3)c2n1 | > 40 µM (inactive)
27 | COc1ccc(Sc2nc3ccccc3n3cnnc23)cc1 | > 40 µM (inactive)
28 | N#C/C(=C\c1ccc(OCc2cccc(C(=O)O)c2)cc1)c1ccc(F)cc1 | 20.2 µM
29 | O=c1c2[nH]c3ccccc3c2ncn1CCC1=CCCCC1 | > 40 µM (inactive)
30 | CN1CCc2c(C#N)c(N3CCOCC3)nc(NCC3CCCO3)c2C1 (centres undefined) | > 40 µM (inactive)
31 | COc1cn(-c2ccc(F)cc2)nc1C(=O)Nc1ccc(Cl)cc1Cl | 16.2 µM
32 | CCC(C)N1CNc2c(c(=O)[nH]c(=O)n2Cc2ccco2)C1 (centres undefined) | > 40 µM (inactive)
33 | Cc1ccc(NC(=O)Nc2ccc(C)n(CC(=O)Nc3cc(C)ccc3C)c2=O)cc1 | > 40 µM (inactive)
34 | Cc1ccc(-n2cc(-c3noc(C(=O)Nc4ccc(F)cc4C)n3)nn2)cc1 | 10.1 µM
35 | NC(=O)C[C@H](NC(=O)[C@H](Cc1ccccc1)n1c(=O)[nH]c2ccccc2c1=O)C(=O)N[C@@H](Cc1ccccc1)C(=O)O | > 40 µM (inactive)
36 | CC(=O)NS(=O)(=O)c1ccc(NC(=O)/C=C/c2cn(-c3ccccc3)nc2-c2ccccc2)cc1 | 18.8 µM
37 | Cc1ccc(Nc2nc(O)c(CC(=O)Nc3ccc(C)cc3C)s2)cc1 | 14.6 µM
38 | CCc1ccccc1NC(=O)Cn1c(SCc2ccc(F)cc2)nc2cccnc21 | 25 µM
39 | COc1cc(C)cc2c1C(=O)c1c(cc(O)c(Cl)c1O)C2=O | 4.38 µM

Reference: PubChem BioAssay AID1645863 (Buhrlage Lab, Dana-Farber Cancer Institute and Novartis …, 2021)
